Assay results published in patent US20130130299A1, “ELECT[…] CYTOMETRY” (University of Utah Research Foundation, priority 2009, published 2013).

Test system: PC12 cells
Assay: Microchip amperometric detection of electrically evoked exocytotic catecholamine release
Type: cell-based, rat
Method: Cells were cultured in suspension in 75 mm^2 tissue culture flasks with RPMI 1640 (Invitrogen, Carlsbad, Calif.) cell culture media supplemented with 15% horse serum (Invitrogen), 2.5% fetal bovine serum (Invitrogen) and 0.02 mg/ml gentamicin (Invitrogen). Flasks were kept in an incubator at 37° C. with 5% CO2. Media was refreshed every 3-4 days, retaining 10% of the existing media each time. Cells were mechanically agitated to break up cell clusters through repeated washing through a pipettor tip. Additional separation was achieved through weekly, overnight treatment of the cells in 1 mM ethylene glycol tetraacetic acid (EGTA, Sigma-Aldrich, St. Louis, Mo.) with subsequent washing and trituration.
Prior to use, cells were transferred to Locke's buffer consisting of 154 mM NaCl, 5.6 mM KCl, 3.6 mM NaHCO3, 2.3 mM CaCl2, 5.6 mM glucose, and 5 mM Hepes (pH 7.4). An aliquot of the solution was immediately transferred to the MEMS device via manual pipette aspiration. […]
Neurotransmitter release from the PC12 cells was measured using a three electrode arrangement with a Au WE (FIGS. 3A and 3B, WE), a Au counter electrode (FIGS. 3A and 3B, CE) and silver/silver chloride (Ag/AgCl) reference electrode (RE) with all controlled by a NPI VA-10 potentiostat (National Precision Instruments (NPI), Tamm, Germany). […]

Compound | exocytosis activity after exposure to the actin-disrupting agent (population of PC12 cells exposed to cytochalasin-D, data not shown) | cube root of quantal yield (PC12 cells differentiated with 5 μM dexamethasone, n=209 cells, k=25,463 spikes, WE +700 mV vs Ag/AgCl)
C=C1[C@@H](C)[C@H]2[C@H](Cc3ccccc3)NC(=O)[C@]23[C@H](OC(C)=O)/C=C/[C@@](C)(O)C(=O)[C@@H](C)C/C=C/[C@H]3[C@@H]1O [cytochalasin-D] | did not block | –
C[C@@H]1C[C@H]2[C@@H]3CCC4=CC(=O)C=C[C@]4(C)[C@@]3(F)[C@@H](O)C[C@]2(C)[C@@]1(O)C(=O)CO [dexamethasone] | – | 6.6±0.08 zmol^1/3
